Assay results from patent publication US20240218022A1, “ANTI-VISTA MACROCYCLIC PEPTIDES AND COMPOSITIONS” (BRISTOL-MYERS SQUIBB COMPANY, priority 2022, published 2024).
Starred links: 1 amine or outer side, 2 acyl side, 3 side chain; linkers in the order of their positions; H or OH if unused. Positions of bridges follow the written chain, without caps; N, C: chain ends. Non-standard residues stand in square brackets, D forms with d. Residues, ends and D or L forms follow the SMILES beside them. ξ: configuration not given here. Phe(3-Me) = Cc1cccc(C[C@H](N)C(=O)O)c1; βAsp = O=C(O)[C@H](CC(=O)[*:2])N[*:1]; NMeThr(3ξ) = CN[C@H](C(=O)O)C(C)O; NMeL = CN[C@@H](CC(C)C)C(=O)O; Ahp(2) = CCCCC[C@H](N)C(=O)O; NMeNle = CCCC[C@H](NC)C(=O)O; Tle = CC(C)(C)[C@H](N)C(=O)O; NMeV = CN[C@H](C(=O)O)C(C)C; NMeS = CN[C@@H](CO)C(=O)O; NHexGly = CCCCCCNCC(=O)O; Nle = CCCC[C@H](N)C(=O)O; Aun = NCCCCCCCCCCC(=O)O; AEEA = NCCOCCOCC(=O)O

Molecular target: T1, mouse VISTA (mVISTA) (Mus musculus, UniProt Q9D659)
T1 construct: expressed in transfected cells; host or cells: Human embryonic kidney 293T cells
T1 sequence (Q9D659 33-308): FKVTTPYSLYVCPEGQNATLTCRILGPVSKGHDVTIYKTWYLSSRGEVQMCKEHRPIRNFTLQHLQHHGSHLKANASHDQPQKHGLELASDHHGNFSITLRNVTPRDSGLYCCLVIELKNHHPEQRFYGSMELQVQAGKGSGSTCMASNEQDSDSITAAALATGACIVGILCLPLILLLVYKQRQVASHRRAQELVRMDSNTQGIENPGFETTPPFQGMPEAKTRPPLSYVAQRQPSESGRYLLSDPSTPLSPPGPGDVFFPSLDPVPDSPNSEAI
Assay: Cell-Based Binding High-Content Assay For mVISTA (HC CBA mVISTA)
Settings: cell-based binding high-content assay, mVISTA; read-out: HC CBA miPr ISTA IC50
Outline: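 293T cells expressing mouse VISTA, with compounds added either after seeding ("no wash") or before seeding and then washed out after 1 h. Biotinylated peptide 2 nM for 30 min at room temperature, then detection with Alexa 647–streptavidin. After fixation with Hoechst stain, plates were high-content imaged; IC50 from four-parameter logistic fit.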

| SMILES | IC50 |
| --- | --- |
| CCCCCCN1CC(=O)N[C@@H](Cc2ccc(O)cc2)C(=O)N[C@@H](CC(C)C)C(=O)N[C@@H](CC(N)=O)C(=O)N[C@@H](CCCNC(=N)N)C(=O)N(C)[C@@H](CC(C)C)C(=O)N[C@@H](CCCCC)C(=O)N2CCC[C@H]2C(=O)N[C@@H](C(C)(C)C)C(=O)N[C@@H](CC(=O)O)C(=O)N[C@H](C(=O)N[C@@H](CC(=O)NCCOCCOCC(=O)N[C@@H](CC(=O)O)C(=O)NCCOCCOCC(=O)NCCCCCCCCCCC(=O)O)C(=O)O)CSCC(=O)N[C@@H](Cc2ccccc2)C(=O)N[C@@H](Cc2ccc(O)cc2)C(=O)N[C@@H](CC(=O)O)C1=O [compound 2026] ({CH2CO}-FYD[NHexGly]YLNR[NMeL][Ahp(2)]P[Tle]DC[βAsp][AEEA]D[AEEA][Aun]-OH; thioether N-14) | 17.5 nM |
| CCCCCCN1CC(=O)N[C@@H](Cc2ccc(O)cc2)C(=O)N[C@@H](CC(C)C)C(=O)N[C@@H](CC(N)=O)C(=O)N[C@@H](CCCNC(=N)N)C(=O)N(C)[C@@H](CCCC)C(=O)N[C@@H](CCCCC)C(=O)N2CCC[C@H]2C(=O)N[C@@H](C(C)(C)C)C(=O)N[C@@H](CC(=O)O)C(=O)N[C@H](C(=O)N[C@@H](CC(=O)NCCOCCOCC(=O)N[C@@H](CC(=O)O)C(=O)NCCOCCOCC(=O)NCCCCCCCCCCC(=O)O)C(=O)O)CSCC(=O)N[C@@H](Cc2ccccc2)C(=O)N[C@@H](Cc2ccc(O)cc2)C(=O)N[C@@H](CC(=O)O)C1=O [compound 2029] ({CH2CO}-FYD[NHexGly]YLNR[NMeNle][Ahp(2)]P[Tle]DC[βAsp][AEEA]D[AEEA][Aun]-OH; thioether N-14) | 17.5 nM |
| CCCCCCN1CC(=O)N[C@@H](Cc2ccc(O)cc2)C(=O)N[C@@H](CC(C)C)C(=O)N[C@@H](CC(N)=O)C(=O)N[C@@H](CCCNC(=N)N)C(=O)N(C)[C@@H](CCCC)C(=O)N[C@@H](CCCCC)C(=O)N2CCC[C@H]2C(=O)N[C@@H](C(C)(C)C)C(=O)N[C@@H](CO)C(=O)N[C@H](C(=O)N[C@@H](CC(=O)NCCOCCOCC(=O)N[C@@H](CC(=O)O)C(=O)NCCOCCOCC(=O)NCCCCCCCCCCC(=O)O)C(=O)O)CSCC(=O)N[C@@H](Cc2ccccc2)C(=O)N[C@@H](Cc2ccc(O)cc2)C(=O)N[C@@H](CC(=O)O)C1=O [compound 2030] ({CH2CO}-FYD[NHexGly]YLNR[NMeNle][Ahp(2)]P[Tle]SC[βAsp][AEEA]D[AEEA][Aun]-OH; thioether N-14) | 22.8 nM |
| CCCCCCN1CC(=O)N[C@@H](Cc2ccc(O)cc2)C(=O)N[C@@H](CC(C)C)C(=O)N[C@@H](CC(N)=O)C(=O)N[C@@H](CCCNC(=N)N)C(=O)N(C)[C@@H](CC(C)C)C(=O)N[C@@H](CCCCC)C(=O)N2CCC[C@H]2C(=O)N[C@@H](C(C)(C)C)C(=O)N[C@@H](CO)C(=O)N[C@H](C(=O)N[C@@H](CC(=O)NCCOCCOCC(=O)N[C@@H](CC(=O)O)C(=O)NCCOCCOCC(=O)NCCCCCCCCCCC(=O)O)C(=O)O)CSCC(=O)N[C@@H](Cc2ccccc2)C(=O)N[C@@H](Cc2ccc(O)cc2)C(=O)N[C@@H](CC(=O)O)C1=O [compound 2031] ({CH2CO}-FYD[NHexGly]YLNR[NMeL][Ahp(2)]P[Tle]SC[βAsp][AEEA]D[AEEA][Aun]-OH; thioether N-14) | 14.5 nM |
| CCCCCCN1CC(=O)N[C@@H](Cc2ccc(O)cc2)C(=O)N[C@@H](CC(C)C)C(=O)N[C@@H](CC(N)=O)C(=O)N[C@@H](CCCNC(=N)N)C(=O)N(C)[C@@H](CO)C(=O)N[C@@H](CCCCC)C(=O)N2CCC[C@H]2C(=O)N[C@@H](C(C)(C)C)C(=O)N[C@@H](CC(=O)O)C(=O)N[C@H](C(=O)N[C@@H](CC(=O)NCCOCCOCC(=O)N[C@@H](CC(=O)O)C(=O)NCCOCCOCC(=O)NCCCCCCCCCCC(=O)O)C(=O)O)CSCC(=O)N[C@@H](Cc2ccccc2)C(=O)N[C@@H](Cc2c[nH]c3ccccc23)C(=O)N[C@@H](CC(=O)O)C1=O [compound 2034] ({CH2CO}-FWD[NHexGly]YLNR[NMeS][Ahp(2)]P[Tle]DC[βAsp][AEEA]D[AEEA][Aun]-OH; thioether N-14) | 43.5 nM |
| CCCCCCN1CC(=O)N[C@@H](Cc2ccc(O)cc2)C(=O)N[C@@H](CC(C)C)C(=O)N[C@@H](CC(N)=O)C(=O)N[C@@H](CCCNC(=N)N)C(=O)N(C)[C@@H](CO)C(=O)N[C@@H](CCCCC)C(=O)N2CCC[C@H]2C(=O)N[C@@H](C(C)(C)C)C(=O)N[C@@H](CC(=O)O)C(=O)N[C@H](C(=O)N[C@@H](CC(=O)NCCOCCOCC(=O)N[C@@H](CC(=O)O)C(=O)NCCOCCOCC(=O)NCCCCCCCCCCC(=O)O)C(=O)O)CSCC(=O)N[C@@H](Cc2ccccc2)C(=O)N[C@@H](Cc2ccc(O)cc2)C(=O)N[C@@H](CC(=O)O)C1=O [compound 2035] ({CH2CO}-FYD[NHexGly]YLNR[NMeS][Ahp(2)]P[Tle]DC[βAsp][AEEA]D[AEEA][Aun]-OH; thioether N-14) | 37.1 nM |
| CCCCCCN1CC(=O)N[C@@H](Cc2ccc(O)cc2)C(=O)N[C@@H](CC(C)C)C(=O)N[C@@H](CC(N)=O)C(=O)N[C@@H](CCCNC(=N)N)C(=O)N(C)[C@@H](C(C)C)C(=O)N[C@@H](CCCCC)C(=O)N2CCC[C@H]2C(=O)N[C@@H](C(C)(C)C)C(=O)N[C@@H](CC(=O)O)C(=O)N[C@H](C(=O)N[C@@H](CC(=O)NCCOCCOCC(=O)N[C@@H](CC(=O)O)C(=O)NCCOCCOCC(=O)NCCCCCCCCCCC(=O)O)C(=O)O)CSCC(=O)N[C@@H](Cc2ccccc2)C(=O)N[C@@H](Cc2ccc(O)cc2)C(=O)N[C@@H](CC(=O)O)C1=O [compound 2037] ({CH2CO}-FYD[NHexGly]YLNR[NMeV][Ahp(2)]P[Tle]DC[βAsp][AEEA]D[AEEA][Aun]-OH; thioether N-14) | 34.4 nM |

Further compounds by falling IC50, results first:

| IC50 | SMILES |
| --- | --- |
| 49 nM | CCCCCCN1CC(=O)N[C@@H](Cc2ccc(O)cc2)C(=O)N[C@@H](CC(C)C)C(=O)N[C@@H](CC(N)=O)C(=O)N[C@@H](CCCNC(=N)N)C(=O)N(C)[C@@H](C(C)O)C(=O)N[C@@H](CCCCC)C(=O)N2CCC[C@H]2C(=O)N[C@@H](C(C)(C)C)C(=O)N[C@@H](CO)C(=O)N[C@H](C(=O)N[C@@H](CC(=O)NCCOCCOCC(=O)N[C@@H](CC(=O)O)C(=O)NCCOCCOCC(=O)NCCCCCCCCCCC(=O)O)C(=O)O)CSCC(=O)N[C@@H](Cc2ccccc2)C(=O)N[C@@H](Cc2ccc(O)cc2)C(=O)N[C@@H](CC(=O)O)C1=O (stereo partly drawn) [compound 2036] ({CH2CO}-FYD[NHexGly]YLNR[NMeThr(3ξ)][Ahp(2)]P[Tle]SC[βAsp][AEEA]D[AEEA][Aun]-OH; thioether N-14) |
| 40.3 nM | CCCCCCN1CC(=O)N[C@@H](Cc2ccc(O)cc2)C(=O)N[C@@H](CCCC)C(=O)N[C@@H](CC(N)=O)C(=O)N[C@@H](CCCNC(=N)N)C(=O)N(C)[C@@H](CCCC)C(=O)N[C@@H](CCCCC)C(=O)N2CCC[C@H]2C(=O)N[C@@H](C(C)(C)C)C(=O)N[C@@H](CO)C(=O)N[C@H](C(=O)N[C@@H](CC(=O)NCCOCCOCC(=O)N[C@@H](CC(=O)O)C(=O)NCCOCCOCC(=O)NCCCCCCCCCCC(=O)O)C(=O)O)CSCC(=O)N[C@@H](Cc2cccc(C)c2)C(=O)N[C@@H](Cc2c[nH]c3ccccc23)C(=O)N[C@@H](CC(=O)O)C1=O [compound 2024] ({CH2CO}-[Phe(3-Me)]WD[NHexGly]Y[Nle]NR[NMeNle][Ahp(2)]P[Tle]SC[βAsp][AEEA]D[AEEA][Aun]-OH; thioether N-14) |
| 28.1 nM | CCCCCCN1CC(=O)N[C@@H](Cc2ccc(O)cc2)C(=O)N[C@@H](CC(C)C)C(=O)N[C@@H](CC(N)=O)C(=O)N[C@@H](CCCNC(=N)N)C(=O)N(C)[C@@H](CC(C)C)C(=O)N[C@@H](CCCCC)C(=O)N2CCC[C@H]2C(=O)N[C@@H](C(C)(C)C)C(=O)N[C@@H](CC(=O)O)C(=O)N[C@H](C(=O)N[C@@H](CC(=O)NCCOCCOCC(=O)N[C@@H](CC(=O)O)C(=O)NCCOCCOCC(=O)NCCCCCCCCCCC(=O)O)C(=O)O)CSCC(=O)N[C@@H](Cc2ccccc2)C(=O)N[C@@H](Cc2c[nH]c3ccccc23)C(=O)N[C@@H](CC(=O)O)C1=O [compound 2032] ({CH2CO}-FWD[NHexGly]YLNR[NMeL][Ahp(2)]P[Tle]DC[βAsp][AEEA]D[AEEA][Aun]-OH; thioether N-14) |
| 27.5 nM | CCCCCCN1CC(=O)N[C@@H](Cc2ccc(O)cc2)C(=O)N[C@@H](CC(C)C)C(=O)N[C@@H](CC(N)=O)C(=O)N[C@@H](CCCNC(=N)N)C(=O)N(C)[C@@H](CCCC)C(=O)N[C@@H](CCCCC)C(=O)N2CCC[C@H]2C(=O)N[C@@H](C(C)(C)C)C(=O)N[C@@H](CC(=O)O)C(=O)N[C@H](C(=O)N[C@@H](CC(=O)NCCOCCOCC(=O)N[C@@H](CC(=O)O)C(=O)NCCOCCOCC(=O)NCCCCCCCCCCC(=O)O)C(=O)O)CSCC(=O)N[C@@H](Cc2ccccc2)C(=O)N[C@@H](Cc2c[nH]c3ccccc23)C(=O)N[C@@H](CC(=O)O)C1=O [compound 2027] ({CH2CO}-FWD[NHexGly]YLNR[NMeNle][Ahp(2)]P[Tle]DC[βAsp][AEEA]D[AEEA][Aun]-OH; thioether N-14) |
| 18.4 nM | CCCCCCN1CC(=O)N[C@@H](Cc2ccc(O)cc2)C(=O)N[C@@H](CC(C)C)C(=O)N[C@@H](CC(N)=O)C(=O)N[C@@H](CCCNC(=N)N)C(=O)N(C)[C@@H](CO)C(=O)N[C@@H](CCCCC)C(=O)N2CCC[C@H]2C(=O)N[C@@H](C(C)(C)C)C(=O)N[C@@H](CO)C(=O)N[C@H](C(=O)N[C@@H](CC(=O)NCCOCCOCC(=O)N[C@@H](CC(=O)O)C(=O)NCCOCCOCC(=O)NCCCCCCCCCCC(=O)O)C(=O)O)CSCC(=O)N[C@@H](Cc2ccccc2)C(=O)N[C@@H](Cc2ccc(O)cc2)C(=O)N[C@@H](CC(=O)O)C1=O [compound 2033] ({CH2CO}-FYD[NHexGly]YLNR[NMeS][Ahp(2)]P[Tle]SC[βAsp][AEEA]D[AEEA][Aun]-OH; thioether N-14) |
